Measured values reported in patent publication US20250171438A1 (Agios Pharmaceuticals, Inc., priority 2022, published 2025).

Target: T1, human PAH with the R408W mutation (Homo sapiens, UniProt P00439, R408W)
T1 construct: expressed in transfected cells
T1 sequence (P00439 1-452 R408W): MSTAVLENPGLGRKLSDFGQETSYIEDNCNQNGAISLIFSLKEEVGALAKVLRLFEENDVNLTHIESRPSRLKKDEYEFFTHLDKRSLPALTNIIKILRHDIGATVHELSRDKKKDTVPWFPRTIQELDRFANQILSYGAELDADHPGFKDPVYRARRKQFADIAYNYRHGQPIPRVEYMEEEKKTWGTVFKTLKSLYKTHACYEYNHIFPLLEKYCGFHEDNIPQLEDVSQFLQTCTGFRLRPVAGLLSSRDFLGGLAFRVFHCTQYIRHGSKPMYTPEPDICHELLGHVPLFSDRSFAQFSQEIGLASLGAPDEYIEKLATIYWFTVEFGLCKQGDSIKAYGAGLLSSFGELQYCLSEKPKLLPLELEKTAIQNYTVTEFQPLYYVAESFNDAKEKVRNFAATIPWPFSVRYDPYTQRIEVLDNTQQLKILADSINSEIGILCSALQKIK
Experiment: Cell Based Phenylalanine Flux Assay
Settings: A375 cells expressing human R408W PAH; 24 hrs compound incubation; 13C-Tyrosine by LC-MS; average where tested multiple times; read-out: AC50

AC50 [nM]	Compound
> 5000	COCCc1nc(C)c(C(=O)N2CCc3[nH]cnc3[C@@H]2c2nc3ccccc3s2)o1 [Example 1730, (R)-(4-(benzo[d]thiazol-2-yl)-1,4,6,7-tetrahydro-5H-imidazo[4,5-c]pyridin-5-yl)(2-(2-methoxyethyl)-4-methyloxazol-5-yl)methanone]
< 500	Cn1nc(C(F)F)cc1C(=O)N1CCc2[nH]cnc2[C@H]1c1nc2c(F)cccc2s1 [Example 1731, (S)-(3-(difluoromethyl)-1-methyl-1H-pyrazol-5-yl)(4-(4-fluorobenzo[d]thiazol-2-yl)-6,7-dihydro-1H-imidazo[4,5-c]pyridin-5(4H)-yl)methanone]
1000 to 5000	Cn1nc(C(F)F)cc1C(=O)N1CCc2[nH]cnc2[C@@H]1c1nc2c(F)cccc2s1 [Example 1732, (R)-(3-(difluoromethyl)-1-methyl-1H-pyrazol-5-yl)(4-(4-fluorobenzo[d]thiazol-2-yl)-6,7-dihydro-1H-imidazo[4,5-c]pyridin-5(4H)-yl)methanone]
500 to 1000	Cn1ncc(Cl)c1C(=O)N1CCc2[nH]cnc2[C@H]1c1nc2c(F)cccc2s1 [Example 1733]
500 to 1000	Cn1ncc(Cl)c1C(=O)N1CCc2[nH]cnc2[C@@H]1c1nc2c(F)cccc2s1 [Example 1734, (R)-(4-chloro-1-methyl-1H-pyrazol-5-yl)(4-(4-fluorobenzo[d]thiazol-2-yl)-6,7-dihydro-1H-imidazo[4,5-c]pyridin-5(4H)-yl)methanone]
< 500	O=C(c1ccnn1C1CC1)N1CCc2[nH]cnc2[C@H]1c1nc2c(F)cccc2s1 [Example 1735]
1000 to 5000	O=C(c1ccnn1C1CC1)N1CCc2[nH]cnc2[C@@H]1c1nc2c(F)cccc2s1 [Example 1736, (R)-(1-cyclopropyl-1H-pyrazol-5-yl)(4-(4-fluorobenzo[d]thiazol-2-yl)-6,7-dihydro-1H-imidazo[4,5-c]pyridin-5(4H)-yl)methanone]
< 500	O=C(c1ccnn1CC(F)(F)F)N1CCc2[nH]cnc2[C@H]1c1nc2c(F)cccc2s1 [Example 1737, (S)-(4-(4-fluorobenzo[d]thiazol-2-yl)-6,7-dihydro-1H-imidazo[4,5-c]pyridin-5(4H)-yl)(1-(2,2,2-trifluoroethyl)-1H-pyrazol-5-yl)methanone]
1000 to 5000	O=C(c1ccnn1CC(F)(F)F)N1CCc2[nH]cnc2[C@@H]1c1nc2c(F)cccc2s1 [Example 1738, (R)-(4-(4-fluorobenzo[d]thiazol-2-yl)-6,7-dihydro-1H-imidazo[4,5-c]pyridin-5(4H)-yl)(1-(2,2,2-trifluoroethyl)-1H-pyrazol-5-yl)methanone]
< 500	O=C(c1ccnn1C(F)F)N1CCc2[nH]cnc2[C@H]1c1nc2c(F)cccc2s1 [Example 1739]
1000 to 5000	O=C(c1ccnn1C(F)F)N1CCc2[nH]cnc2[C@@H]1c1nc2c(F)cccc2s1 [Example 1740, (R)-(1-(difluoromethyl)-1H-pyrazol-5-yl)(4-(4-fluorobenzo[d]thiazol-2-yl)-6,7-dihydro-1H-imidazo[4,5-c]pyridin-5(4H)-yl)methanone]
1000 to 5000	Cc1nn(C)c(Cl)c1C(=O)N1CCc2[nH]cnc2[C@@H]1c1nc2c(F)cccc2s1 [Example 1741, (R)-(5-chloro-1,3-dimethyl-1H-pyrazol-4-yl)(4-(4-fluorobenzo[d]thiazol-2-yl)-6,7-dihydro-1H-imidazo[4,5-c]pyridin-5(4H)-yl)methanone]
< 500	Cc1nn(C)c(Cl)c1C(=O)N1CCc2[nH]cnc2[C@H]1c1nc2c(F)cccc2s1 [Example 1742]
500 to 1000	Cn1ncc(C(=O)N2CCc3[nH]cnc3[C@H]2c2nc3c(F)cccc3s2)c1C(F)F [Example 1743, (S)-(5-(difluoromethyl)-1-methyl-1H-pyrazol-4-yl)(4-(4-fluorobenzo[d]thiazol-2-yl)-6,7-dihydro-1H-imidazo[4,5-c]pyridin-5(4H)-yl)methanone]
500 to 1000	O=C(c1oc(-c2ccc(F)cn2)nc1C(F)F)N1CCc2[nH]cnc2[C@@H]1c1nc2ccccc2s1 [Example 1745, (R)-(4-(benzo[d]thiazol-2-yl)-6,7-dihydro-1H-imidazo[4,5-c]pyridin-5(4H)-yl)(4-(difluoromethyl)-2-(5-fluoropyridin-2-yl)oxazol-5-yl)methanone]
< 500	O=C(c1oc(-c2ccc(F)cn2)nc1C(F)F)N1CCc2[nH]cnc2[C@H]1c1nc2ccccc2s1 [Example 1746]

AC50 [nM]	Compound
500 to 1000	O=C(c1nnc(-c2ccccn2)o1)N1CCc2[nH]cnc2[C@@H]1c1nc2cc(F)ccc2s1 [Example 1747, (R)-(4-(5-fluorobenzo[d]thiazol-2-yl)-6,7-dihydro-1H-imidazo[4,5-c]pyridin-5(4H)-yl)(5-(pyridin-2-yl)-1,3,4-oxadiazol-2-yl)methanone]
< 500	O=C(c1nnc(-c2ccccn2)o1)N1CCc2[nH]cnc2[C@H]1c1nc2cc(F)ccc2s1 [Example 1748, (S)-(4-(5-fluorobenzo[d]thiazol-2-yl)-6,7-dihydro-1H-imidazo[4,5-c]pyridin-5(4H)-yl)(5-(pyridin-2-yl)-1,3,4-oxadiazol-2-yl)methanone]
1000 to 5000	C[C@@H]1CN(C(=O)c2nnc(-c3cnn(C)c3)o2)[C@@H](c2nc3ccccc3s2)c2nc[nH]c21 [Example 1749, ((4R,7R)-4-(benzo[d]thiazol-2-yl)-7-methyl-6,7-dihydro-1H-imidazo[4,5-c]pyridin-5(4H)-yl)(5-(1-methyl-1H-pyrazol-4-yl)-1,3,4-oxadiazol-2-yl)methanone]
500 to 1000	C[C@@H]1CN(C(=O)c2nnc(-c3cnn(C)c3)o2)[C@H](c2nc3ccccc3s2)c2nc[nH]c21 [Example 1750, ((4S,7R)-4-(benzo[d]thiazol-2-yl)-7-methyl-6,7-dihydro-1H-imidazo[4,5-c]pyridin-5(4H)-yl)(5-(1-methyl-1H-pyrazol-4-yl)-1,3,4-oxadiazol-2-yl)methanone]
> 5000	C[C@H]1CN(C(=O)c2nnc(-c3cnn(C)c3)o2)[C@@H](c2nc3ccccc3s2)c2nc[nH]c21 [Example 1751, ((4R,7S)-4-(benzo[d]thiazol-2-yl)-7-methyl-6,7-dihydro-1H-imidazo[4,5-c]pyridin-5(4H)-yl)(5-(1-methyl-1H-pyrazol-4-yl)-1,3,4-oxadiazol-2-yl)methanone]
500 to 1000	C[C@H]1CN(C(=O)c2nnc(-c3cnn(C)c3)o2)[C@H](c2nc3ccccc3s2)c2nc[nH]c21 [Example 1752, ((4S,7S)-4-(benzo[d]thiazol-2-yl)-7-methyl-6,7-dihydro-1H-imidazo[4,5-c]pyridin-5(4H)-yl)(5-(1-methyl-1H-pyrazol-4-yl)-1,3,4-oxadiazol-2-yl)methanone]
1000 to 5000	C[C@@H]1CN(C(=O)c2nnc(-c3ccc(F)cn3)o2)[C@@H](c2nc3ccccc3s2)c2nc[nH]c21 [Example 1753, ((4R,7R)-4-(benzo[d]thiazol-2-yl)-7-methyl-6,7-dihydro-1H-imidazo[4,5-c]pyridin-5(4H)-yl)(5-(5-fluoropyridin-2-yl)-1,3,4-oxadiazol-2-yl)methanone]
500 to 1000	C[C@@H]1CN(C(=O)c2nnc(-c3ccc(F)cn3)o2)[C@H](c2nc3ccccc3s2)c2nc[nH]c21 [Example 1754, ((4S,7R)-4-(benzo[d]thiazol-2-yl)-7-methyl-6,7-dihydro-1H-imidazo[4,5-c]pyridin-5(4H)-yl)(5-(5-fluoropyridin-2-yl)-1,3,4-oxadiazol-2-yl)methanone]
> 5000	C[C@H]1CN(C(=O)c2nnc(-c3ccc(F)cn3)o2)[C@@H](c2nc3ccccc3s2)c2nc[nH]c21 [Example 1755, ((4R,7S)-4-(benzo[d]thiazol-2-yl)-7-methyl-6,7-dihydro-1H-imidazo[4,5-c]pyridin-5(4H)-yl)(5-(5-fluoropyridin-2-yl)-1,3,4-oxadiazol-2-yl)methanone]
1000 to 5000	C[C@H]1CN(C(=O)c2nnc(-c3ccc(F)cn3)o2)[C@H](c2nc3ccccc3s2)c2nc[nH]c21 [Example 1756, ((4S,7S)-4-(benzo[d]thiazol-2-yl)-7-methyl-6,7-dihydro-1H-imidazo[4,5-c]pyridin-5(4H)-yl)(5-(5-fluoropyridin-2-yl)-1,3,4-oxadiazol-2-yl)methanone]
500 to 1000	O=C(c1ccnn1-c1ccccn1)N1CCc2[nH]cnc2[C@H]1c1nc2c(F)cccc2s1 [Example 1757, (S)-(4-(4-fluorobenzo[d]thiazol-2-yl)-6,7-dihydro-1H-imidazo[4,5-c]pyridin-5(4H)-yl)(1-(pyridin-2-yl)-1H-pyrazol-5-yl)methanone]
1000 to 5000	Cc1nc(Br)c(C(=O)N2CCc3[nH]cnc3[C@@H]2c2nc3c(F)cccc3s2)o1 [Example 1759, (R)-(4-bromo-2-methyloxazol-5-yl)(4-(4-fluorobenzo[d]thiazol-2-yl)-6,7-dihydro-1H-imidazo[4,5-c]pyridin-5(4H)-yl)methanone]
< 500	Cc1nc(Br)c(C(=O)N2CCc3[nH]cnc3[C@H]2c2nc3c(F)cccc3s2)o1 [Example 1760]
500 to 1000	CN(C)CCn1nccc1C(=O)N1CCc2[nH]cnc2[C@H]1c1nc2c(F)cccc2s1 [Example 1761, (S)-(1-(2-(dimethylamino)ethyl)-1H-pyrazol-5-yl)(4-(4-fluorobenzo[d]thiazol-2-yl)-6,7-dihydro-1H-imidazo[4,5-c]pyridin-5(4H)-yl)methanone]
1000 to 5000	CN(C)CCn1nccc1C(=O)N1CCc2[nH]cnc2[C@@H]1c1nc2c(F)cccc2s1 [Example 1762, (R)-(1-(2-(dimethylamino)ethyl)-1H-pyrazol-5-yl)(4-(4-fluorobenzo[d]thiazol-2-yl)-6,7-dihydro-1H-imidazo[4,5-c]pyridin-5(4H)-yl)methanone]
